Format: physicochemical
Details: 2 h
Procedure: 30.13 mg of 106 was added to 1 mL USP-purified water. The sample was rotated for 2 h and then centrifuged for 5 min. […] A 125 μL aliquot of the solution was then diluted to 25 mL. The sample was analyzed by UV/Vis spectroscopy at 436 nm, and the absorbance was compared to a standard curve compiled from four standards of known concentration. […] Slight error may have been introduced by the small size of the original aliquot. […] The sample was rotated for 2 h and then centrifuged for 5 min. […] A 125 μL aliquot of the solution was then diluted to 25 mL. The sample was analyzed by UV/Vis spectroscopy at 411 nm, and the absorbance was compared to a standard curve compiled from four standards of known concentration. […] Slight error may have been introduced by the small size of the original aliquot.

Substance: β,ε-Carotenyl 3,3′-disuccinate sodium salt [compound 106]
- Aqueous dispersibility (concentration of the original supernatant): 2.85 mg/mL
